According to patent US10463671B2, “Combination therapy for treating cancer” (Epizyme, Inc., priority 2013, dated 2019):

System: glucocorticoid signaling genes in SU-DHL4 cells
Test: RT2 Glucocorticoid Signaling PCR array
Assay type: cell-based
Set-up: IL10 Ct Values / TNF Ct Values: unit not given here
Settings: SUDHL4 cell line, 4 days

CCN(c1cc(-c2ccc(CN3CCOCC3)cc2)cc(C(=O)NCc2c(C)cc(C)[nH]c2=O)c1C)C1CCOCC1 [Compound 44]
ACTB Ct Values: 14.247 | ADARB1 Ct Values: 28.562 | AFF1 Ct Values: 25.936 | AK2 Ct Values: 20.311 | AMPD3 Ct Values: 25.553 | ANGPTL4 Ct Values: 29.825 | ANXA4 Ct Values: 28.717 | ARID5B Ct Values: 25.129 | ASPH Ct Values: 23.348 | ATF4 Ct Values: 18.778 | B2M Ct Values: 18.971 | BCL6 Ct Values: 21.075 | CEBPA Ct Values: 31.206 | CEBPB Ct Values: 23.911 | CREB1 Ct Values: 22.973 | CREB3 Ct Values: 24.566 | CREB3L4 Ct Values: 25.089 | CYB561 Ct Values: 36.737 | DDIT4 Ct Values: 21.455 | DUSP1 Ct Values: 26.325 | EDN1 Ct Values: 33.297 | EHD3 Ct Values: 25.766 | FKBP5 Ct Values: 20.494 | FOSL2 Ct Values: 31.757 | GAPDH Ct Values: 15.835 | GDPD1 Ct Values: 28.134 | GHRHR Ct Values: 37.623 | GLUL Ct Values: 35.795 | GOT1 Ct Values: 22.607 | H6PD Ct Values: 25.743 | HAS2 Ct Values: 35.628 | HNRPLL Ct Values: 22.977 | HPRT1 Ct Values: 21.358 | IL6R Ct Values: 33.589 | IL10 Ct Values: 33.099 | KLF9 Ct Values: 27.456 | KLF13 Ct Values: 22.649 | MT2A Ct Values: 24.175 | NFKBIA Ct Values: 22.909 | NR3C1 Ct Values: 22.803 | PDCD7 Ct Values: 24.858 | PDP1 Ct Values: 26.112 | PER1 Ct Values: 24.926 | PER2 Ct Values: 24.371 | PIK3R1 Ct Values: 23.440 | PLEKHF1 Ct Values: 27.868 | POU2F1 Ct Values: 24.224 | POU2F2 Ct Values: 21.920 | RASA3 Ct Values: 23.207 | RGS2 Ct Values: 25.145 | RHOB Ct Values: 32.584 | RPLP0 Ct Values: 15.469 | SGK1 Ct Values: 25.808 | SLC10A6 Ct Values: 34.857 | SLC19A2 Ct Values: 27.465 | SLC22A5 Ct Values: 28.544 | SNTA1 Ct Values: 24.797 | SPHK1 Ct Values: 30.619 | SPSB1 Ct Values: 26.495 | STAT5A Ct Values: 25.174 | STAT5B Ct Values: 22.153 | TBL1XR1 Ct Values: 20.805 | TNF Ct Values: 29.337 | TNFAIP3 Ct Values: 28.521 | TSC22D3 Ct Values: 21.432 | USP2 Ct Values: 21.342 | USP54 Ct Values: 26.952 | VDR Ct Values: 28.330 | VLDLR Ct Values: 28.792 | ZFP36 Ct Values: 24.706 | ZHX3 Ct Values: 24.719 | ZNF281 Ct Values: 23.881 | AK2 ΔΔCT (compared to DMSO): −0.570 | CREB3 ΔΔCT (compared to DMSO): −0.490 | FKBP5 ΔΔCT (compared to DMSO): 0.008 | GOT1 ΔΔCT (compared to DMSO): 0.065 | TSC22D3 ΔΔCT (compared to DMSO): −0.002 | ACTB ΔCT (B2M) (normalized to B2M): −4.472 | ADARB1 ΔCT (B2M) (normalized to B2M): 8.878 | AFF1 ΔCT (B2M) (normalized to B2M): 7.118 | AK2 ΔCT (B2M) (normalized to B2M): 1.846 | AMPD3 ΔCT (B2M) (normalized to B2M): 6.024 | ANGPTL4 ΔCT (B2M) (normalized to B2M): 10.570 | ANXA4 ΔCT (B2M) (normalized to B2M): 8.217 | AQP1 ΔCT (B2M) (normalized to B2M): 14.226 | ARID5B ΔCT (B2M) (normalized to B2M): 5.748 | ASPH ΔCT (B2M) (normalized to B2M): 3.985 | ATF4 ΔCT (B2M) (normalized to B2M): 0.232 | B2M ΔCT (B2M) (normalized to B2M): 0.000 | BCL6 ΔCT (B2M) (normalized to B2M): 1.878 | CEBPA ΔCT (B2M) (normalized to B2M): 10.026 | CEBPB ΔCT (B2M) (normalized to B2M): 5.188 | CREB1 ΔCT (B2M) (normalized to B2M): 4.237 | CREB3L4 ΔCT (B2M) (normalized to B2M): 5.662 | CREB3 ΔCT (B2M) (normalized to B2M): 5.665 | CYB561 ΔCT (B2M) (normalized to B2M): 14.250 | DDIT4 ΔCT (B2M) (normalized to B2M): 3.098 | DIRAS2 ΔCT (B2M) (normalized to B2M): 14.626 | DUSP1 ΔCT (B2M) (normalized to B2M): 7.998 | EDN1 ΔCT (B2M) (normalized to B2M): 13.616 | FKBP5 ΔCT (B2M) (normalized to B2M): 3.113 | FOSL2 ΔCT (B2M) (normalized to B2M): 14.606 | GAPDH ΔCT (B2M) (normalized to B2M): −2.966 | GDPD1 ΔCT (B2M) (normalized to B2M): 8.216 | GLUL ΔCT (B2M) (normalized to B2M): 15.658 | GOT1 ΔCT (B2M) (normalized to B2M): 4.103 | H6PD ΔCT (B2M) (normalized to B2M): 6.063 | HAS2 ΔCT (B2M) (normalized to B2M): 13.205 | HNRPLL ΔCT (B2M) (normalized to B2M): 3.821 | HPRT1 ΔCT (B2M) (normalized to B2M): 2.826 | IL1RN ΔCT (B2M) (normalized to B2M): 17.503 | IL6R ΔCT (B2M) (normalized to B2M): 13.239 | IL10 ΔCT (B2M) (normalized to B2M): 12.363 | KLF9 ΔCT (B2M) (normalized to B2M): 8.013 | KLF13 ΔCT (B2M) (normalized to B2M): 4.078 | MERTK ΔCT (B2M) (normalized to B2M): 15.103 | MT2A ΔCT (B2M) (normalized to B2M): 4.766 | NFKBIA ΔCT (B2M) (normalized to B2M): 4.260 | NR3C1 ΔCT (B2M) (normalized to B2M): 4.025 | PDCD7 ΔCT (B2M) (normalized to B2M): 5.357 | PDGFRB ΔCT (B2M) (normalized to B2M): 16.449 | PDP1 ΔCT (B2M) (normalized to B2M): 6.751 | PER1 ΔCT (B2M) (normalized to B2M): 6.217 | PER2 ΔCT (B2M) (normalized to B2M): 5.647 | PIK3R1 ΔCT (B2M) (normalized to B2M): 4.859 | PLEKHF1 ΔCT (B2M) (normalized to B2M): 8.928 | POU2F1 ΔCT (B2M) (normalized to B2M): 5.110 | POU2F2 ΔCT (B2M) (normalized to B2M): 3.085 | RASA3 ΔCT (B2M) (normalized to B2M): 4.228 | RGS2 ΔCT (B2M) (normalized to B2M): 5.914 | RHOB ΔCT (B2M) (normalized to B2M): 11.328 | RHOJ ΔCT (B2M) (normalized to B2M): 19.737 | RPLP0 ΔCT (B2M) (normalized to B2M): −3.490 | SESN1 ΔCT (B2M) (normalized to B2M): 6.439 | SGK1 ΔCT (B2M) (normalized to B2M): 7.757 | SLC10A6 ΔCT (B2M) (normalized to B2M): 15.580 | SLC19A2 ΔCT (B2M) (normalized to B2M): 7.877 | SLC22A5 ΔCT (B2M) (normalized to B2M): 8.969 | SNTA1 ΔCT (B2M) (normalized to B2M): 5.666 | SPHK1 ΔCT (B2M) (normalized to B2M): 10.251 | SPSB1 ΔCT (B2M) (normalized to B2M): 6.832 | STAT5A ΔCT (B2M) (normalized to B2M): 6.005 | STAT5B ΔCT (B2M) (normalized to B2M): 3.152 | TBL1XR1 ΔCT (B2M) (normalized to B2M): 2.099 | TNF ΔCT (B2M) (normalized to B2M): 10.753 | TNFAIP3 ΔCT (B2M) (normalized to B2M): 9.051 | TSC22D3 ΔCT (B2M) (normalized to B2M): 4.628 | USP2 ΔCT (B2M) (normalized to B2M): 3.364 | USP54 ΔCT (B2M) (normalized to B2M): 15.234 | VDR ΔCT (B2M) (normalized to B2M): 8.200 | VLDLR ΔCT (B2M) (normalized to B2M): 9.068 | ZFP36 ΔCT (B2M) (normalized to B2M): 6.014 | ZHX3 ΔCT (B2M) (normalized to B2M): 5.569 | ZNF281 ΔCT (B2M) (normalized to B2M): 5.057
